≈ marks a conversion by molar mass, not a printed value. Where a SMILES comes first, the peptide text is derived from it. [ ]: non-standard residue; d: D form. dHyp = O=C(O)[C@H]1C[C@H](O)CN1
Legend:
[1] = Kinetic solubility in aqueous buffer pH 7.4 by total chemiluminescent nitrogen determination (Analiza); settings: aqueous buffer, pH 7.4, aqueous buffer, kinetic from dmso stock
[2] = tested on: BV2 (mouse microglia) cell line; test: pHrodo-myelin phagocytosis/cell viability high content imaging assay: viability (cell count, nuclear area, nuclear intensity); settings: for 1. Cell count (% control) / 2. Nuclear Area (% Control) / 3. Nuclear DNA Intensity (% control): 48 hours treatment
Method in brief: (§1)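 BV2 mouse and HMC3 human microglia were treated with compounds at 10 μM for 48 h, with pHrodo-myelin present for the last 20 h. Viability was imaged as total cell count per well and mean nuclear intensity per cell. Values are means of duplicates, normalized to untreated wells as % control.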

[3] = tested on: HMC3 (human microglia) cell line; test: as above; settings: 48 hours treatment
Method in brief: as §1

[4] = tested on: BV2 (mouse microglia) cell line; test: pHrodo-myelin phagocytosis/cell viability high content imaging assay: phagocytosis signal; assay type: cell-based
Method in brief: (§2)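 Simultaneous phagocytosis/viability imaging at approximately 22 h after adding pHrodo-myelin. Rising intensity flagged early apoptosis and falling intensity later apoptosis.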

[5] = tested on: HMC3 (human microglia) cell line; test: as above; assay type: cell-based
Method in brief: as §2

[6] = BV2, compound 10 uM, pHrodo-myelin
[7] = HMC3, compound 10 uM, pHrodo-myelin
[8] = BV2 cells, 10 uM compound, 48 hours treatment, pHrodo-myelin final 20 hours
[9] = HMC3 cells, 10 uM compound, 48 hours treatment, pHrodo-myelin final 20 hours

## CN(C)CC[C@H](CSc1ccccc1)Nc1ccc(S(=O)(=O)NC(=O)c2ccc(N3CCN(Cc4ccccc4-c4ccc(Cl)cc4)CC3)cc2)cc1[N+](=O)[O-] [ABT-737]
[1]
  solubility kinetic: 0.9 µM (≈ 0.732 µg/mL)

## Cc1cnc(Nc2ccc(F)cc2Cl)nc1-c1c[nH]c(C(=O)N[C@H](CO)c2cccc(Cl)c2)c1 [Vertex 11e]
[1]
  solubility kinetic: 1.4 µM (≈ 0.701 µg/mL)

## CCOC(=O)N1CCC(Nc2c(NCCN3CCN(c4cccc(C(F)(F)F)c4)CC3)c(=O)c2=O)CC1 [Squarunkin A]
[1]
  solubility kinetic: 0.7 µM (≈ 0.366 µg/mL)

## O=c1[nH]c(=O)n([C@H]2C[C@H](O)[C@@H](CO)O2)cc1/C=C/Br [RP101 (Brivudine)]
[1]
  solubility kinetic: 199 µM (≈ 66.2 µg/mL)

## Cl.O=C(O)Cc1cccc(OCCCN(Cc2cccc(C(F)(F)F)c2Cl)CC(c2ccccc2)c2ccccc2)c1 [GW 3965 HCl]
[1]
  solubility kinetic: 4.1 µM

## CC(C)c1ccc(/C=N/NC(=O)c2ccc(O)cc2)cc1 [GSK 4716]
[1]
  solubility kinetic: 215 µM (≈ 60.6 µg/mL)

## COc1cc(C(=O)NS(=O)(=O)c2ccccc2C)ccc1Cc1cn(C)c2ccc(NC(=O)OC3CCCC3)cc12 [Zafirlukast]
[1]
  solubility kinetic: 129 µM (≈ 74.4 µg/mL)

## O=C(NC1CC1)C(=O)C(Cc1ccccc1)NC(=O)[C@H]1CCC(=O)N1Cc1ccccc1 (stereo partly shown) [ABT-957 (Alicapistat)]
[1]
  solubility kinetic: 176 µM (≈ 76.5 µg/mL)

## Cc1cc(NC(=O)Nc2ccccc2)n(-c2ccccc2)n1 [CHEMBL86962 (VU0032230)]
[1]
  solubility kinetic: 191 µM (≈ 55.9 µg/mL)

## CC(C)(O)c1coc(S(=O)(=O)NC(=O)Nc2c3c(cc4c2CCC4)CCC3)c1 [MCC950]
[1]
  solubility kinetic: 119 µM (≈ 48.2 µg/mL)

## CCn1c(=O)/c(=C2\Sc3ccccc3N2C)s/c1=C\c1ccccn1 [YM-08]
[1]
  solubility kinetic: 4.6 µM (≈ 1.69 µg/mL)

## O=c1oc2ccccc2cc1-c1cn2cc(Cc3ccc(F)cc3)sc2n1 [iMDK]
[2]; 10 μM, BV2
  Mouse microglial cytotoxicity at 10 μM (<70% control): Y (The compound was found to be cytotoxic (cell count threshold: <70% control) when murine immortalized microglial cells were dosed at 10 μM (Y: yes))
[1]
  solubility kinetic: < 1.1 µM

## COCCOCCOC(=O)N[C@@H](CC(C)C)C(=O)N[C@@H](Cc1ccccc1)C(=O)C(=O)NC1CC1 [SNJ-1945]
[1]
  solubility kinetic: 150 µM (≈ 73.9 µg/mL)

## CC(=O)N[C@H](Cc1ccc(O)cc1)C(=O)N1CCC[C@@H]1C(=O)N1C[C@@H](O)C[C@@H]1C(=O)NCC(=O)N[C@H](C)C(=O)NCC(N)=O [UNC10303110A] (Ac-[dY][dP][dHyp]G[dA]G-NH2)
[2]; BV2, compound 10 uM
  1. Cell count (% control): 113.8 % control
  2. Nuclear Area (% Control): 106.0 % Control
  3. Nuclear DNA Intensity (% control): 97.3 % control
[3]; HMC3, compound 10 uM
  1. Cell count (% control): 110.1 % control
  2. Nuclear Area (% Control): 103.7 % Control
  3. Nuclear DNA Intensity (% control): 94.9 % control
[4]; [6]
  4. Phagocytosis (% control): 117.7 % control
[5]; [7]
  4. Phagocytosis (% control): 73.8 % control

## CN1C[C@H](Nc2cnn(C)c(=O)c2Br)C[C@H](c2ccccc2)C1 [GSK4027]
[1]
  solubility kinetic: 126 µM (≈ 47.6 µg/mL)

## CNC(=O)[C@H](Cc1c[nH]c2ccccc12)NC(=O)[C@@H](CC(=O)NO)CC(C)C [UNC10302858A]
[2]; BV2 cells, 10 uM compound
  1. Cell count (% control): 101.6 % control
  2. Nuclear Area (% Control): 102.8 % Control
  3. Nuclear DNA Intensity (% control): 98.5 % control
[3]; HMC3 cells, 10 uM compound
  1. Cell count (% control): 86.0 % control
  2. Nuclear Area (% Control): 95.1 % Control
  3. Nuclear DNA Intensity (% control): 101.4 % control
[4]; [8]
  4. Phagocytosis (% control): 100.0 % control
[5]; [9]
  4. Phagocytosis (% control): 82.4 % control

## N#Cc1ccc(COC[C@H]2O[C@@H](n3c(NCc4ccc(Cl)c(Cl)c4)nc4c(N)ncnc43)[C@H](O)[C@@H]2O)cc1 [UNC10302853A]
[2]; BV2 cells, 10 uM compound
  1. Cell count (% control): 54.5 % control
  2. Nuclear Area (% Control): 107.2 % Control
  3. Nuclear DNA Intensity (% control): 111.0 % control
[3]; HMC3 cells, 10 uM compound
  1. Cell count (% control): 92.6 % control
  2. Nuclear Area (% Control): 103.1 % Control
  3. Nuclear DNA Intensity (% control): 98.3 % control
[4]; [8]
  4. Phagocytosis (% control): 176.9 % control
[5]; [9]
  4. Phagocytosis (% control): 88.3 % control

## COc1ccc(/C=C/C(=O)c2ccc(OC)cc2OC)cc1 [UNC10121790A]
[2]; BV2 cells, 10 uM compound
  1. Cell count (% control): 72.4 % control
  2. Nuclear Area (% Control): 107.4 % Control
  3. Nuclear DNA Intensity (% control): 104.1 % control
[3]; HMC3 cells, 10 uM compound
  1. Cell count (% control): 66.8 % control
  2. Nuclear Area (% Control): 97.3 % Control
  3. Nuclear DNA Intensity (% control): 138.7 % control
[4]; [8]
  4. Phagocytosis (% control): 199.6 % control
[5]; [9]
  4. Phagocytosis (% control): 97.7 % control

## CC(=O)O[C@@H]1[C@@H](OC(C)=O)[C@@H](O)[C@H](Oc2c(-c3ccc(O)cc3)oc3cc(O)cc(O)c3c2=O)O[C@H]1C [UNC10303187A]
[2]; BV2, compound 10 uM
  1. Cell count (% control): 146.1 % control
  2. Nuclear Area (% Control): 103.4 % Control
  3. Nuclear DNA Intensity (% control): 101.7 % control
[3]; HMC3, compound 10 uM
  1. Cell count (% control): 122.3 % control
  2. Nuclear Area (% Control): 105.1 % Control
  3. Nuclear DNA Intensity (% control): 90.5 % control
[4]; [6]
  4. Phagocytosis (% control): 142.1 % control
[5]; [7]
  4. Phagocytosis (% control): 67.9 % control

## CC1(COc2ccc3c(c2)ncn3-c2ccc3cccc(N4CCC(N)CC4)c3n2)COC1 [UNC10223898A]
[2]; BV2, compound 10 uM
  1. Cell count (% control): 26.6 % control
  2. Nuclear Area (% Control): 103.7 % Control
  3. Nuclear DNA Intensity (% control): 28.1 % control
[3]; HMC3, compound 10 uM
  1. Cell count (% control): 60.3 % control
  2. Nuclear Area (% Control): 56.9 % Control
  3. Nuclear DNA Intensity (% control): 188.8 % control
[4]; [6]
  4. Phagocytosis (% control): 0.00125 % control
[5]; [7]
  4. Phagocytosis (% control): 0.347 % control

## C=CC[C@@H]1/C=C(\C)C[C@H](C)C[C@H](OC)[C@H]2O[C@@](O)(C(=O)C(=O)N3CCCC[C@H]3C(=O)O[C@H](/C(C)=C/[C@@H]3CC[C@@H](O)[C@H](OC)C3)[C@H](C)[C@@H](O)CC1=O)[C@H](C)C[C@@H]2OC [UNC10121346A]
[2]; BV2 cells, 10 uM compound
  1. Cell count (% control): 60.9 % control
  2. Nuclear Area (% Control): 110.1 % Control
  3. Nuclear DNA Intensity (% control): 115.2 % control
[3]; HMC3 cells, 10 uM compound
  1. Cell count (% control): 103.0 % control
  2. Nuclear Area (% Control): 100.5 % Control
  3. Nuclear DNA Intensity (% control): 98.5 % control
[4]; [8]
  4. Phagocytosis (% control): 195.2 % control
[5]; [9]
  4. Phagocytosis (% control): 110.2 % control

## COS(=O)(=O)[O-].C[n+]1c2ccccc2nc2ccccc21 [UNC10302857A]
[2]; BV2 cells, 10 uM compound
  1. Cell count (% control): 16.9 % control
  2. Nuclear Area (% Control): 123.3 % Control
  3. Nuclear DNA Intensity (% control): 59.8 % control
[3]; HMC3 cells, 10 uM compound
  1. Cell count (% control): 60.7 % control
  2. Nuclear Area (% Control): 61.5 % Control
  3. Nuclear DNA Intensity (% control): 197.5 % control
[4]; [8]
  4. Phagocytosis (% control): 27.9 % control
[5]; [9]
  4. Phagocytosis (% control): 0.031 % control

## O=C(O)c1cc2nc(-c3ccc(Cl)cc3)cc(C(F)(F)F)n2n1 [UNC10302881A]
[2]; BV2 cells, 10 uM compound
  1. Cell count (% control): 116.3 % control
  2. Nuclear Area (% Control): 105.9 % Control
  3. Nuclear DNA Intensity (% control): 97.1 % control
[3]; HMC3 cells, 10 uM compound
  1. Cell count (% control): 123.0 % control
  2. Nuclear Area (% Control): 99.8 % Control
  3. Nuclear DNA Intensity (% control): 93.1 % control
[4]; [8]
  4. Phagocytosis (% control): 163.1 % control
[5]; [9]
  4. Phagocytosis (% control): 94.6 % control

## CC(C)(C)c1cc(NC(=O)Nc2ccc(-c3cn4c(n3)sc3cc(OCCN5CCOCC5)ccc34)cc2)no1 [UNC10220373A]
[2]; BV2, compound 10 uM
  1. Cell count (% control): 110.4 % control
  2. Nuclear Area (% Control): 100.2 % Control
  3. Nuclear DNA Intensity (% control): 106.6 % control
[3]; HMC3, compound 10 uM
  1. Cell count (% control): 110.3 % control
  2. Nuclear Area (% Control): 101.4 % Control
  3. Nuclear DNA Intensity (% control): 94.2 % control
[4]; [6]
  4. Phagocytosis (% control): 143.1 % control
[5]; [7]
  4. Phagocytosis (% control): 81.7 % control

## CCCC[C@@H](C=O)NC(=O)[C@H](CC(C)C)NC(=O)OCc1ccccc1 [UNC10302674A]
[2]; BV2 cells, 10 uM compound
  1. Cell count (% control): 102.6 % control
  2. Nuclear Area (% Control): 106.4 % Control
  3. Nuclear DNA Intensity (% control): 106.3 % control
[3]; HMC3 cells, 10 uM compound
  1. Cell count (% control): 146.0 % control
  2. Nuclear Area (% Control): 103.5 % Control
  3. Nuclear DNA Intensity (% control): 93.8 % control
[4]; [8]
  4. Phagocytosis (% control): 195.1 % control
[5]; [9]
  4. Phagocytosis (% control): 69.0 % control

Reference: article PMC9019904, “AD Informer Set: Chemical tools to facilitate Alzheimer's disease drug discovery” (Alzheimer's & Dementia : Translational Research & Clinical …, 2022)
